Reference: the supplement of paper PMC6045584
± gives the standard deviation of the averaged measurements.

Assays:
[1] = compound: CN(C)C/C=C/C(=O)Nc1cc2c(Nc3ccc(F)c(Cl)c3)ncnc2cc1O[C@H]1CCOC1 [AFATINIB]; assay: surviving fraction relative to DMSO-only wells; higher = less growth inhibition; conditions: exposure time: 5 days
How it was run: (§1)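 Viability values are CellTiter-Glo luminescence readings, given as surviving fraction against the median of DMSO-only wells. The readings were taken after 10 minutes at room temperature, following five days of continuous exposure to inhibitors at 0.5, 1, 5, 10, 50, 100, 500 and 1000 nM that began 24 hours after log-phase tumour cell lines were seeded at 250–500 cells per well in 384-well plates. Every line was screened three times and kept only if replicate Pearson r >0.7 and median Z' >0.3.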

[2] = compound: CCCCCCCCCCCCCCCC(=O)Nc1ccn([C@@H]2O[C@H](CO)[C@@H](O)[C@@H]2C#N)c(=O)n1 [SAPACITABINE]; assay: as above; conditions: exposure time: 5 days
How it was run: as §1

Test System	surviving fraction ([1]; 0.5 nM)	surviving fraction ([1]; 1 nM)	surviving fraction ([1]; 5 nM)	surviving fraction ([1]; 10 nM)	surviving fraction ([1]; 50 nM)	surviving fraction ([1]; 100 nM)	surviving fraction ([1]; 500 nM)	surviving fraction ([1]; 1000 nM)	surviving fraction ([2]; 0.5 nM)	surviving fraction ([2]; 1 nM)	surviving fraction ([2]; 5 nM)	surviving fraction ([2]; 10 nM)	surviving fraction ([2]; 50 nM)	surviving fraction ([2]; 100 nM)	surviving fraction ([2]; 500 nM)	surviving fraction ([2]; 1000 nM)
S68 BREAST	0.958 ± 0.2	0.976 ± 0.33	0.735 ± 0.085	0.809 ± 0.14	0.656 ± 0.12	0.907 ± 0.14	0.478 ± 0.064	0.314 ± 0.055	0.821 ± 0.029	0.642 ± 0.021	0.675 ± 0.066	0.617 ± 0.094	0.64 ± 0.22	0.462 ± 0.039	0.296 ± 0.032	0.284 ± 0.02
SAOS2 BONE	1.15 ± 0.11	1.21 ± 0.067	1.15 ± 0.018	1.104 ± 0.0087	1.1 ± 0.013	1.06 ± 0.089	0.603 ± 0.0052	0.186 ± 0.034	0.806 ± 0.032	0.811 ± 0.019	0.875 ± 0.029	0.779 ± 0.057	0.776 ± 0.013	0.566 ± 0.071	0.199 ± 0.018	0.153 ± 0.017
SCC47 HEADNECK	1.05 ± 0.021	0.98 ± 0.078	0.88 ± 0.11	0.707 ± 0.037	0.629 ± 0.064	0.604 ± 0.034	0.546 ± 0.026	0.373 ± 0.014	0.937 ± 0.093	0.939 ± 0.063	0.982 ± 0.063	0.948 ± 0.072	1.05 ± 0.057	0.988 ± 0.079	0.71 ± 0.033	0.597 ± 0.0027
SCC90 HEADNECK	1 ± 0.04	0.907 ± 0.086	0.621 ± 0.036	0.495 ± 0.028	0.42 ± 0.08	0.351 ± 0.0068	0.288 ± 0.011	0.235 ± 0.011	0.88 ± 0.089	0.794 ± 0.074	0.862 ± 0.011	0.848 ± 0.053	1.06 ± 0.13	0.953 ± 0.087	0.853 ± 0.015	0.999 ± 0.064
SG27 HEADNECK	1 ± 0.09	0.981 ± 0.035	1.04 ± 0.041	1 ± 0.14	0.883 ± 0.012	0.966 ± 0.13	0.865 ± 0.093	0.831 ± 0.068	1.05 ± 0.027	1.01 ± 0.041	1 ± 0.16	0.731 ± 0.054	0.97 ± 0.021	0.975 ± 0.075	0.999 ± 0.025	0.885 ± 0.022
SG28 HEADNECK	0.907 ± 0.056	0.828 ± 0.089	0.669 ± 0.083	0.523 ± 0.056	0.441 ± 0.052	0.452 ± 0.057	0.342 ± 0.029	0.259 ± 0.035	0.756 ± 0.14	0.629 ± 0.18	0.721 ± 0.26	0.216 ± 0.099	0.996 ± 0.12	0.864 ± 0.054	0.934 ± 0.11	0.422 ± 0.0014
SG31 HEADNECK	0.967 ± 0.1	0.947 ± 0.046	0.62 ± 0.11	0.615 ± 0.18	0.515 ± 0.12	0.471 ± 0.13	0.528 ± 0.035	0.452 ± 0.054	0.933 ± 0.053	0.946 ± 0.043	0.814 ± 0.079	0.464 ± 0.015	0.919 ± 0.071	0.947 ± 0.16	0.792 ± 0.072	0.642 ± 0.033
SG32 HEADNECK	1.13 ± 0.14	1.09 ± 0.082	1.13 ± 0.2	1.01 ± 0.078	0.895 ± 0.11	0.864 ± 0.07	0.637 ± 0.081	0.348 ± 0.09	0.715 ± 0.068	0.614 ± 0.17	0.907 ± 0.12	0.429 ± 0.12	0.707 ± 0.11	0.487 ± 0.065	0.447 ± 0.082	0.289 ± 0.078
SG43 HEADNECK	1.03 ± 0.33	0.966 ± 0.27	0.362 ± 0.022	0.414 ± 0.18	0.301 ± 0.11	0.181 ± 0.044	0.182 ± 0.046	0.0613 ± 0.035	1.04 ± 0.091	1.28 ± 0.23	1.08 ± 0.17	1.11 ± 0.29	0.867 ± 0.14	1.04 ± 0.072	0.933 ± 0.13	1.05 ± 0.04
SIHA CERVIX	1.05 ± 0.025	1.06 ± 0.069	1.02 ± 0.022	1.01 ± 0.064	1.03 ± 0.011	1.07 ± 0.085	0.845 ± 0.019	0.684 ± 0.052	0.907 ± 0.068	0.863 ± 0.03	0.895 ± 0.044	0.91 ± 0.021	1.02 ± 0.026	0.972 ± 0.11	0.739 ± 0.046	0.641 ± 0.035
SUM44 BREAST	1.04 ± 0.053	1 ± 0.054	1.01 ± 0.023	0.995 ± 0.077	1.07 ± 0.027	1.03 ± 0.022	0.859 ± 0.034	0.448 ± 0.047	0.781 ± 0.19	0.773 ± 0.18	0.823 ± 0.14	0.827 ± 0.1	0.902 ± 0.12	0.686 ± 0.13	0.68 ± 0.093	0.611 ± 0.07
SUM149 BREAST	1.03 ± 0.076	1.05 ± 0.033	0.703 ± 0.12	0.573 ± 0.089	0.481 ± 0.056	0.439 ± 0.013	0.4053 ± 0.004	0.339 ± 0.044	0.829 ± 0.11	0.666 ± 0.055	0.69 ± 0.11	0.188 ± 0.006	0.339 ± 0.031	0.22 ± 0.018	0.236 ± 0.016	0.186 ± 0.021
SUM149.B1*.S BREAST	1.11 ± 0.014	1.11 ± 0.061	1.05 ± 0.02	1.05 ± 0.037	0.966 ± 0.03	0.972 ± 0.045	0.916 ± 0.022	0.798 ± 0.044	0.918 ± 0.067	0.792 ± 0.011	0.888 ± 0.01	0.455 ± 0.022	0.839 ± 0.023	0.567 ± 0.066	0.281 ± 0.022	0.428 ± 0.022
SUM159 BREAST	1.07 ± 0.02	1.03 ± 0.061	1.07 ± 0.023	0.942 ± 0.13	0.943 ± 0.15	0.886 ± 0.27	0.896 ± 0.23	0.867 ± 0.27	0.954 ± 0.016	0.942 ± 0.01	0.947 ± 0.028	0.9227 ± 0.0074	0.935 ± 0.018	0.851 ± 0.018	0.42 ± 0.0061	0.34 ± 0.021
SYO1 SYNOVIAL	0.996 ± 0.057	1.03 ± 0.027	0.948 ± 0.059	0.995 ± 0.026	0.95 ± 0.017	0.952 ± 0.042	0.606 ± 0.035	0.324 ± 0.02	0.83 ± 0.07	0.689 ± 0.019	0.737 ± 0.016	0.343 ± 0.029	0.48 ± 0.022	0.269 ± 0.0028	0.0989 ± 0.0067	0.0679 ± 0.0022
T47D BREAST	1.06 ± 0.033	1.04 ± 0.06	1.01 ± 0.031	0.98 ± 0.023	1.04 ± 0.013	1.08 ± 0.022	1.07 ± 0.054	0.939 ± 0.037	0.9004 ± 0.0044	0.871 ± 0.029	0.911 ± 0.078	0.825 ± 0.035	0.961 ± 0.06	0.918 ± 0.036	0.649 ± 0.0094	0.519 ± 0.039
U2OS BONE	1.075 ± 0.001	1.05 ± 0.044	1.06 ± 0.013	1.02 ± 0.024	1.05 ± 0.0055	1.04 ± 0.056	0.838 ± 0.021	0.646 ± 0.0085	0.921 ± 0.066	0.938 ± 0.06	0.946 ± 0.035	0.936 ± 0.067	0.939 ± 0.016	0.83 ± 0.036	0.729 ± 0.019	0.66 ± 0.032
VP229 BREAST	1.1 ± 0.11	1.03 ± 0.13	0.645 ± 0.079	0.586 ± 0.076	0.324 ± 0.011	0.273 ± 0.04	0.272 ± 0.021	0.165 ± 0.025	0.763 ± 0.17	0.668 ± 0.054	0.686 ± 0.11	0.643 ± 0.084	1 ± 0.14	0.835 ± 0.12	0.69 ± 0.099	0.669 ± 0.083
YAMATO SYNOVIAL	1.22 ± 0.061	1.34 ± 0.096	1.32 ± 0.15	1.18 ± 0.0093	1.23 ± 0.037	1.27 ± 0.07	1.16 ± 0.035	0.739 ± 0.02	0.776 ± 0.044	0.446 ± 0.029	0.684 ± 0.053	0.11 ± 0.0083	1.04 ± 0.062	0.511 ± 0.021	0.402 ± 0.01	0.0903 ± 0.0049
ZR751 BREAST	1.14 ± 0.15	0.982 ± 0.17	0.979 ± 0.058	0.926 ± 0.13	0.746 ± 0.097	0.87 ± 0.1	0.671 ± 0.083	0.536 ± 0.068	1.02 ± 0.049	1 ± 0.21	1.01 ± 0.14	0.888 ± 0.13	1.01 ± 0.073	0.788 ± 0.011	0.627 ± 0.06	0.472 ± 0.039
